Assay results: PMC3726784, “Synthesis, Structure and Antibacterial Activity of Potent DNA Gyrase Inhibitors: N′-Benzoyl-3-(4-Bromophenyl)-1H-Pyrazole-5-Carbohydrazide Derivatives” (PLoS ONE, 2013)
Converted amounts (≈) assume the structure as drawn.

Tests used:
[1] = tested on: Bacillus subtilis ATCC 6633; experiment: In vitro antibacterial assay (MIC, MTT colorimetric method); assay type: cell-based; details: B. subtilis ATCC 6633, MH medium, 37°C; for MIC: Bacillus subtilis, ATCC6633, 24 h, read-out: Minimum inhibitory concentrations, B. subtilis
Protocol: (§1) The activities of synthesized compounds were tested against Bacillus subtilis ATCC 6633, Escherichia coli ATCC 35218, Pseudomonas aeruginosa ATCC 27853 and Staphylococcus aureus ATCC 6538 which may be causal agents of some serious infections in humans using MH medium (Mueller-Hinton medium: casein hydrolysate 17.5 g, soluble starch 1.5 g, beef extract 1000 mL). Also included are the activities of reference compounds kanamycin.
(§2) The antibacterial activity of the synthesized compounds was tested against B. subtilis, E. coli, P. aeruginosa and S. aureus using MH medium (Mueller-Hinton medium: casein hydrolysate 17.5 g, soluble starch 1.5 g, beef extract 1000 mL). The MICs (minimum inhibitory concentrations) of the test compounds were determined by a colorimetric method using the dye MTT (3-(4,5-dimethylth-iazol-2-yl)-2,5-diphenyl tetrazoliumbromide). A stock solution of the synthesized compound (100 µg/mL) in DMSO was prepared and graded quantities of the test compounds were incorporated in specified quantity of sterilized liquid MH medium. A specified quantity of the medium containing the compound was poured into microtitration plates. Suspension of the microorganism was prepared to contain approximately 10^5 cfu/mL and applied to microtitration plates with serially diluted compounds in DMSO to be tested and incubated at 37°C for 24 h. After the MICs were visually determined on each of the microtitration plates, 50 µL of PBS (phosphate buffered saline 0.01 mol/L, pH 7.4, Na2HPO4·12H2O 2.9 g, KH2PO4 0.2 g, NaCl 8.0 g, KCl 0.2 g, distilled water 1000 mL) containing 2 mg of MTT/mL was added to each well. Incubation was continued at room temperature for 4–5 h. The content of each well was removed, and 100 µL of isopropanol containing 5% 1 mol/L HCl was added to extract the dye. After 12 h of incubation at room temperature, the optical density (OD) was measured with a microplate reader at 550 nm.

[2] = tested on: Pseudomonas aeruginosa ATCC 27853; experiment: as above; assay type: cell-based; details: P. aeruginosa ATCC 27853, MH medium, 37°C, 24 h; for MIC: Pseudomonas aeruginosa, ATCC27853, read-out: Minimum inhibitory concentrations, P.aeruginosa
Protocol: as §1, §2

[3] = tested on: Escherichia coli ATCC 35218; experiment: as above; assay type: cell-based; details: E. coli ATCC 35218, MH medium, 37°C, 24 h; for MIC: Escherichia coli, ATCC35218, read-out: Minimum inhibitory concentrations, E. coli
Protocol: as §1, §2

[4] = tested on: Staphylococcus aureus ATCC 6538; experiment: as above; assay type: cell-based; details: S. aureus ATCC 6538, MH medium, 37°C, 24 h; for MIC: Staphylococcus aureus, ATCC6538, read-out: Minimum inhibitory concentrations, S. aureus
Protocol: as §1, §2

[5] = biological target: T1, S. aureus DNA gyrase (Staphylococcus aureus, UniProt P0A0K8); experiment: biochemical; details: enzyme purified from S. aureus, supercoiling
T1 construct: purified by the F. Blanche [25] from a crude extract of S. aureus; endogenous in cells
Description: (§3) To elucidate the mechanism by which the pyrazole derivatives induce antibacterial activity, the inhibitory activities of selected compounds were examined against DNA gyrase isolated from B. subtilis and S. aureus.
The S. aureus DNA gyrase were purified by the F. Blanche from a crude extract of S. aureus and cultivated with medium B, which was composed of 10 g of polypeptone, 2 g of yeast extract, 8 g of Na2HPO4, 2 g of KH2PO4, 1.2 g of (NH4)2SO4, 0.2 g of MgSO4, 4 g of glucose perliter of distilled water. Supercoiling and decatenation were performed according to F. B lanche.

[6] = biological target: B. subtilis DNA gyrase (Bacillus subtilis, UniProt P05652); experiment: biochemical
Protocol: as §3
The B. subtilis DNA gyrase were purified by the methods of E. Orr.: Cells were suspended in an equal volume of 25 mM HEPES-KOH (pH 8.0)-100 mM KCl and stored frozen at −70°C. The frozen cell suspension was thawed and diluted with an equal volume of 25 mM HEPES-KOH (pH 8.0)-0.4 M sucrose-20 mM magnesium acetate-1 mM dithiothreitol-5 mM PMSF. All operations were performed at 0–4°C. Lysozyme was added to a final concentration, and the mixture was incubated for 2.5 h. One-third volume of 2 M KCl-1.5% Brij was added, and the incubation was continued for 15 min. The lysate was then centrifuged for 90 min intirotor. The supernatant was adjusted to a KCl concentration of 0.2 M by dilution with 25 mM HEPES-KOH (pH 8.0)-1 mM dithiothreitol-1mMEDTA-0.5 mM pmsf-10% ethylene glycol and applied to a column. The column was washed with starting buffer and eluted successively with buffer containing 20 mM ATP-25 mM magnesium acetate-0.2 M KCI, buffer (2 M KCI), and 5 M urea in buffer (0.2 M KCl).Protein-containing fractions were dialyzed against buffer (0.05 MKCI). Supercoiling and decatenation were carried out by the F. Blanche method.

T1 sequence (P0A0K8 whole entry): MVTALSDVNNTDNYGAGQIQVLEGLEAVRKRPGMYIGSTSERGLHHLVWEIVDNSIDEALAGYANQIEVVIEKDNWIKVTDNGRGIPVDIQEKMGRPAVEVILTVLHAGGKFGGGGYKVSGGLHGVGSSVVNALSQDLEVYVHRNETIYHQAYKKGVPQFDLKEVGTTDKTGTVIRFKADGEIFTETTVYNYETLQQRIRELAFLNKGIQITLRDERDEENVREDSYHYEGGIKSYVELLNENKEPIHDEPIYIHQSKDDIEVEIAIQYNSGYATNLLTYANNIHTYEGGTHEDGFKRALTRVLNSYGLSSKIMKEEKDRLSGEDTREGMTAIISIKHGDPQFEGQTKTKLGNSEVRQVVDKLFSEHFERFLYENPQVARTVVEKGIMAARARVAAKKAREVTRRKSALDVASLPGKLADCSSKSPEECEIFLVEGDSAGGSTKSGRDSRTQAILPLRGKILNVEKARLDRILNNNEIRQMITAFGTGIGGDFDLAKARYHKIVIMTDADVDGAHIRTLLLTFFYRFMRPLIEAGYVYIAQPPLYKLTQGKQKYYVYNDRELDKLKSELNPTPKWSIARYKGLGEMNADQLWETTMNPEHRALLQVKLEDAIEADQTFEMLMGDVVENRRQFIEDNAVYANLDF
T1 sequence (P20831 whole entry partner): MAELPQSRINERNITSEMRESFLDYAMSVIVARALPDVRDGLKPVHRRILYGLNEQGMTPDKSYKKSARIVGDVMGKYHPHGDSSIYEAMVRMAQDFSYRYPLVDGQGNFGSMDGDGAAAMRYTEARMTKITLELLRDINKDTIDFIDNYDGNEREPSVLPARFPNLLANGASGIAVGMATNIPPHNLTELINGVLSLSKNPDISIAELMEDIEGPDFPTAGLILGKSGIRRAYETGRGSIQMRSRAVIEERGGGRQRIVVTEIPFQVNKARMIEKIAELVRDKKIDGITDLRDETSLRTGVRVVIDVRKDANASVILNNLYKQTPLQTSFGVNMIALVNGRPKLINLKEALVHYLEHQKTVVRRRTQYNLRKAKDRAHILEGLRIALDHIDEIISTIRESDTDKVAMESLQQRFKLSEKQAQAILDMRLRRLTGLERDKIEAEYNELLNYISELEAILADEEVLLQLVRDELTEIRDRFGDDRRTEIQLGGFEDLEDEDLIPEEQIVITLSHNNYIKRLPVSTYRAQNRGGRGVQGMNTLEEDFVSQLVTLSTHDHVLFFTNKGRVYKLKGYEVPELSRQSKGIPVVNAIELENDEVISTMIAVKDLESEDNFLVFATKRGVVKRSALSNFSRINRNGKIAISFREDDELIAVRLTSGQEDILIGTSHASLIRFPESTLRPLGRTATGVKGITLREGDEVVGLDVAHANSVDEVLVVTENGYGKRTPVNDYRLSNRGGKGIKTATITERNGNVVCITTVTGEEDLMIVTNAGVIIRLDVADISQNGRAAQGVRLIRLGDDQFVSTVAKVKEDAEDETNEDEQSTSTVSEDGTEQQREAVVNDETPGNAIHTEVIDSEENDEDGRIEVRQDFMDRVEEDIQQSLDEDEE
Chain of B. subtilis DNA gyrase (P05652 whole entry): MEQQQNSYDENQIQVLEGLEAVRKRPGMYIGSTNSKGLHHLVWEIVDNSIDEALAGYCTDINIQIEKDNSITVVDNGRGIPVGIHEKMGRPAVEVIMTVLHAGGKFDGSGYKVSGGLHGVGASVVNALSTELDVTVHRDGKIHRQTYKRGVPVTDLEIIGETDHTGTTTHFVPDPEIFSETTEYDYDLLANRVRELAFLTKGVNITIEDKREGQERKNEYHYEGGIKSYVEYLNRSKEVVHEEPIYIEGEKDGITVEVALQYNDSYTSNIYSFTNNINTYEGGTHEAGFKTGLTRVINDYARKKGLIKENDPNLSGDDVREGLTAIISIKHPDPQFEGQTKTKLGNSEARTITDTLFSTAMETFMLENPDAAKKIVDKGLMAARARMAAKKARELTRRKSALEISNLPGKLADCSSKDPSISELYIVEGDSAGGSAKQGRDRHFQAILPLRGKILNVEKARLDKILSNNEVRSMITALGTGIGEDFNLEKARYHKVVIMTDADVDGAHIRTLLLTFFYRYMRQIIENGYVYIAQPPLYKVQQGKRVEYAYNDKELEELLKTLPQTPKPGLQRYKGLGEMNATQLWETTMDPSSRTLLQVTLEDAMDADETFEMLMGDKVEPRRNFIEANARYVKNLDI
Chain of B. subtilis DNA gyrase (P05653 whole entry, further chain): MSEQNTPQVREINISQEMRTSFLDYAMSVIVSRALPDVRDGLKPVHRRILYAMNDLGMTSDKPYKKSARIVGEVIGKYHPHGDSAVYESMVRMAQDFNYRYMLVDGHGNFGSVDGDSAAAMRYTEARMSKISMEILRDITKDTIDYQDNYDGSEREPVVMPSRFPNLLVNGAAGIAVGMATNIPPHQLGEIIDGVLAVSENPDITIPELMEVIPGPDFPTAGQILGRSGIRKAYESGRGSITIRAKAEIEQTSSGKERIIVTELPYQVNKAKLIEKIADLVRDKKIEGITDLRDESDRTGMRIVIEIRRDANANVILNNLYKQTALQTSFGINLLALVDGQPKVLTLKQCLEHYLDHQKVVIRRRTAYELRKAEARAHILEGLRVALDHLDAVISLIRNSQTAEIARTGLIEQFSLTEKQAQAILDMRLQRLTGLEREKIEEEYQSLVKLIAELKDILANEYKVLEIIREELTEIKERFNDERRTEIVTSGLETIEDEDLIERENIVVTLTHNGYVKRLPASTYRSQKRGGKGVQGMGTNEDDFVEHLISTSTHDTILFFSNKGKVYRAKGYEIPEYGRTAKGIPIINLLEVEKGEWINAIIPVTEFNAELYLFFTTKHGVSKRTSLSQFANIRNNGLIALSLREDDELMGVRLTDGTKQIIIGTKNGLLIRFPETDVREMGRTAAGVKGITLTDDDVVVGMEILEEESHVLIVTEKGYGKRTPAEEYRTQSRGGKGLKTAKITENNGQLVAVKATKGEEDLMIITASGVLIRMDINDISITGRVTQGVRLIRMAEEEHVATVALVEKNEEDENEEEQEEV

Molecule: Penicillin [reference compound]
- Minimum inhibitory concentrations, B. subtilis ([1]; 24 h): 1.56 µg/mL
- Minimum inhibitory concentrations, P.aeruginosa [2]: 6.25 µg/mL
- Minimum inhibitory concentrations, E. coli [3]: 6.25 µg/mL
- Minimum inhibitory concentrations, S. aureus [4]: 1.56 µg/mL

Molecule: O=C(NNC(=O)c1ccccc1[N+](=O)[O-])c1cc(-c2ccc(Br)cc2)n[nH]1 [3r, 3-(4-Bromophenyl)-N'-(2-nitrobenzoyl)-1H-pyrazole-5-carbohydrazide]
- MIC [1]: 50 µg/mL (≈ 116 µM)
- MIC [2]: > 50 µg/mL
- MIC [3]: > 50 µg/mL
- MIC [4]: 25 µg/mL (≈ 58.1 µM)
- melting point: 266 to 267 °C

Molecule: Cc1cccc(C(=O)NNC(=O)c2cc(-c3ccc(Br)cc3)n[nH]2)c1 [3j, 3-(4-Bromophenyl)-N'-(3-methylbenzoyl)-1H-pyrazole-5-carbohydrazide]
- MIC [2]: 12.5 µg/mL (≈ 31.3 µM)
- MIC [3]: 50 µg/mL (≈ 125 µM)
- MIC [4]: 1.12 µg/mL (≈ 2.81 µM)
- melting point: 287 to 288 °C
- IC50 [5]: 0.326 µM
- IC50 [6]: 8.14 µM

Molecule: O=C(NNC(=O)c1cc(-c2ccc(Br)cc2)n[nH]1)c1ccccc1 [3s, N'-Benzoyl-3-(4-bromophenyl)-1H-pyrazole-5-carbohydrazide]
- MIC [1]: 10.6 µg/mL (≈ 27.4 µM)
- MIC [2]: 12.5 µg/mL (≈ 32.4 µM)
- MIC [3]: 12.5 µg/mL (≈ 32.4 µM)
- MIC [4]: 10.6 µg/mL (≈ 27.4 µM)
- melting point: 288 to 290 °C
- IC50 [5]: 8.44 µM
- IC50 [6]: 2.6 µM

Molecule: O=C(NNC(=O)c1cc(-c2ccccc2Br)n[nH]1)c1ccc(Br)cc1 [3o, N'-(4-Bromobenzoyl)-3-(2-bromophenyl)-1H-pyrazole-5-carbohydrazide]
- MIC [1]: 23.1 µg/mL (≈ 49.8 µM)
- MIC [2]: > 50 µg/mL
- MIC [3]: > 50 µg/mL
- MIC [4]: 21 µg/mL (≈ 45.2 µM)
- melting point: 281 to 283 °C

Molecule: COc1ccccc1C(=O)NNC(=O)c1cc(-c2ccc(Br)cc2)n[nH]1 [3q, 3-(4-Bromophenyl)-N'-(2-methoxybenzoyl)-1H-pyrazole-5-carbohydrazide]
- MIC [1]: 20.6 µg/mL (≈ 49.6 µM)
- MIC [2]: > 50 µg/mL
- MIC [3]: > 50 µg/mL
- MIC [4]: 18.7 µg/mL (≈ 45.1 µM)
- melting point: 287 to 290 °C

Molecule: O=C(NNC(=O)c1cc(-c2ccc(Br)cc2)n[nH]1)c1ccc(F)cc1 [3a, 3-(4-Bromophenyl)-N'-(4-fluorobenzoyl)-1H-pyrazole-5-carbohydrazide]
- MIC [1]: 12.5 µg/mL (≈ 31.1 µM)
- MIC [2]: 50 µg/mL (≈ 124 µM)
- MIC [3]: > 50 µg/mL
- MIC [4]: 15 µg/mL (≈ 37.2 µM)
- melting point: 284 to 287 °C

Molecule: COc1cccc(C(=O)NNC(=O)c2cc(-c3ccc(Br)cc3)n[nH]2)c1 [3k, 3-(4-Bromophenyl)-N'-(3-methoxybenzoyl)-1H-pyrazole-5-carbohydrazide]
- MIC [2]: 12.5 µg/mL (≈ 30.1 µM)
- MIC [3]: 50 µg/mL (≈ 120 µM)
- MIC [4]: 0.78 µg/mL (≈ 1.88 µM)
- melting point: 251 to 253 °C
- IC50 [5]: 0.361 µM
- IC50 [6]: 0.602 µM

Molecule: O=C(NNC(=O)c1cc(-c2ccc(Br)cc2)n[nH]1)c1ccc(Br)cc1 [3c, N'-(4-Bromobenzoyl)-3-(4-bromophenyl)-1H-pyrazole-5-carbohydrazide]
- MIC [1]: 10.2 µg/mL (≈ 22 µM)
- MIC [2]: 50 µg/mL (≈ 108 µM)
- MIC [3]: > 50 µg/mL
- MIC [4]: 13.8 µg/mL (≈ 29.7 µM)
- melting point: 297 to 298 °C

Molecule: O=C(NNC(=O)c1cc(-c2ccc(Br)cc2)n[nH]1)c1cccc(F)c1 [3g, 3-(4-Bromophenyl)-N'-(3-fluorobenzoyl)-1H-pyrazole-5-carbohydrazide]
- MIC [1]: 25 µg/mL (≈ 62 µM)
- MIC [2]: 50 µg/mL (≈ 124 µM)
- MIC [3]: > 50 µg/mL
- MIC [4]: 13 µg/mL (≈ 32.2 µM)
- melting point: 278 to 280 °C

Molecule: O=C(NNC(=O)c1cc(-c2ccc(Br)cc2)n[nH]1)c1cccc(Cl)c1 [3h, 3-(4-Bromophenyl)-N'-(3-chlorobenzoyl)-1H-pyrazole-5-carbohydrazide]
- MIC [1]: 6.25 µg/mL (≈ 14.9 µM)
- MIC [2]: 50 µg/mL (≈ 119 µM)
- MIC [3]: > 50 µg/mL
- MIC [4]: 12.6 µg/mL (≈ 29.9 µM)
- melting point: 246 to 248 °C

Molecule: O=C(NNC(=O)c1cc(-c2ccc(Br)cc2)n[nH]1)c1ccc(Cl)cc1 [3b, 3-(4-Bromophenyl)-N'-(4-chlorobenzoyl)-1H-pyrazole-5-carbohydrazide]
- MIC [1]: 17.1 µg/mL (≈ 40.8 µM)
- MIC [2]: 50 µg/mL (≈ 119 µM)
- MIC [3]: > 50 µg/mL
- MIC [4]: 15 µg/mL (≈ 35.7 µM)
- melting point: 280 to 283 °C

Molecule: O=C(NNC(=O)c1ccccc1Cl)c1cc(-c2ccc(Br)cc2)n[nH]1 [3n, 3-(4-Bromophenyl)-N'-(2-chlorobenzoyl)-1H-pyrazole-5-carbohydrazide]
- MIC [1]: 12.2 µg/mL (≈ 29.2 µM)
- MIC [2]: > 50 µg/mL
- MIC [3]: > 50 µg/mL
- MIC [4]: 17 µg/mL (≈ 40.4 µM)
- melting point: 280 to 281 °C

Molecule: O=C(NNC(=O)c1cc(-c2ccc(Br)cc2)n[nH]1)c1cccc([N+](=O)[O-])c1 [3l, 3-(4-Bromophenyl)-N'-(3-nitrobenzoyl)-1H-pyrazole-5-carbohydrazide]
- MIC [1]: 10.8 µg/mL (≈ 25.1 µM)
- MIC [2]: 50 µg/mL (≈ 116 µM)
- MIC [3]: > 50 µg/mL
- MIC [4]: 10.8 µg/mL (≈ 25.1 µM)
- melting point: 275 to 276 °C

Molecule: O=C(NNC(=O)c1ccccc1F)c1cc(-c2ccc(Br)cc2)n[nH]1 [3m, 3-(4-Bromophenyl)-N'-(2-fluorobenzoyl)-1H-pyrazole-5-carbohydrazide]
- MIC [1]: 25 µg/mL (≈ 62 µM)
- MIC [2]: > 50 µg/mL
- MIC [3]: > 50 µg/mL
- MIC [4]: 22.1 µg/mL (≈ 54.8 µM)
- melting point: 297 to 298 °C

Molecule: Cc1ccccc1C(=O)NNC(=O)c1cc(-c2ccc(Br)cc2)n[nH]1 [3p, 3-(4-Bromophenyl)-N'-(2-methylbenzoyl)-1H-pyrazole-5-carbohydrazide]
- MIC [1]: 12.2 µg/mL (≈ 30.4 µM)
- MIC [2]: 12.5 µg/mL (≈ 31.3 µM)
- MIC [3]: 50 µg/mL (≈ 125 µM)
- MIC [4]: 8.08 µg/mL (≈ 20.2 µM)
- melting point: 292 to 294 °C
- IC50 [5]: 13 µM
- IC50 [6]: 1.25 µM

Molecule: COc1ccc(C(=O)NNC(=O)c2cc(-c3ccc(Br)cc3)n[nH]2)cc1 [3e, 3-(4-Bromophenyl)-N'-(4-methoxybenzoyl)-1H-pyrazole-5-carbohydrazide]
- MIC [1]: 10.1 µg/mL (≈ 24.4 µM)
- MIC [2]: 12.5 µg/mL (≈ 30.1 µM)
- MIC [3]: 50 µg/mL (≈ 120 µM)
- MIC [4]: 6.68 µg/mL (≈ 16.1 µM)
- melting point: 281 to 282 °C
- IC50 [5]: 8.19 µM
- IC50 [6]: 29.5 µM

Molecule: O=C(NNC(=O)c1cc(-c2ccc(Br)cc2)n[nH]1)c1ccc([N+](=O)[O-])cc1 [3f, 3-(4-Bromophenyl)-N'-(4-nitrobenzoyl)-1H-pyrazole-5-carbohydrazide]
- MIC [1]: 25 µg/mL (≈ 58.1 µM)
- MIC [2]: > 50 µg/mL
- MIC [3]: > 50 µg/mL
- MIC [4]: 18 µg/mL (≈ 41.9 µM)
- melting point: 255 to 257 °C

Molecule: Cc1ccc(C(=O)NNC(=O)c2cc(-c3ccc(Br)cc3)n[nH]2)cc1 [3d, 3-(4-Bromophenyl)-N'-(4-methylbenzoyl)-1H-pyrazole-5-carbohydrazide]
- MIC [2]: 12.5 µg/mL (≈ 31.3 µM)
- MIC [3]: 50 µg/mL (≈ 125 µM)
- MIC [4]: 3.66 µg/mL (≈ 9.17 µM)
- melting point: 270 to 272 °C
- IC50 [5]: 3.76 µM
- IC50 [6]: 6.51 µM

Molecule: O=C(NNC(=O)c1cc(-c2cccc(Br)c2)n[nH]1)c1ccc(Br)cc1 [3i, N'-(4-Bromobenzoyl)-3-(3-bromophenyl)-1H-pyrazole-5-carbohydrazide]
- MIC [1]: 12.6 µg/mL (≈ 27.1 µM)
- MIC [2]: 50 µg/mL (≈ 108 µM)
- MIC [3]: > 50 µg/mL
- MIC [4]: 12.1 µg/mL (≈ 26.1 µM)
- melting point: 229 to 231 °C
